Data set [1] deals with Mut6. Put plainly: Cytotox testing (CellTiter-Glo ATP assay) in Mut6 cells. The class given is cell-based, mouse. To be noted: CellTiter-Glo; for EC50: Mus musculus, 96 h, Mut6 cells, 4 days, read-out: Activity in Mut6 [EC50]. On the procedure:
(§1) Mut6 tumor cells were cultured in DMEM/F12 media supplemented by EGF (10 ng/mL), basic FGF (10 ng/mL), heparin (4 ug/mL), glucose (total 21 mM), NaHCO3 (113 μg/mL), Hepes (119 μg/mL), glutamine (2 mM), sodium pyruvate (1 mM), N2 supplement (ThermoFisher Gibco 17502-048, 100×, at 100-fold dilution), B27 supplement (ThermoFisher Gibco 12587-010, 50×, at 100-fold dilution), and penicillin/streptomycin (ThermoFisher, final 1%). Cells were maintained in Ultra-low attachment plate (Corning) as sphere-forming cells. For ATP assays and protein/RNA isolation, cells were plated into 96-well plates or 6-well plated that were coated with poly-lysine (Sigma P6407, 10 μg/mL in PBS, 4 hr at 37° C.) and laminin (ThermoFisher 23017015, ˜5 mg/L in PBS, overnight at 37° C.). MEFs and Astrocytes were cultured in DMEM supplemented with 10% FBS and 1% Penicillin/Streptomycin.
2,000 cells were plated into each well of 96-well plates. About 3 hours later, cells were treated by 12M11, at 800-fold dilution (4 mM stock was diluted into 5 μM final concentration). […] CellTiter-Glo assay (Promega) was performed according to manufacturer's instructions, by adding 20 μL of reagent into each well. Luminescence signal was detected by the PolarStar plate reader (BMG Labtech). Experiments were performed in quadruplicate, and results are presented with mean average −/+ standard deviation. EC505 were calculated by GraphPad Prism6 software.
The compounds described herein were tested using a cell-based cytotoxicity assay against neuronal stem cells in Mut6, which is a mouse glioblastoma model cell line.

A short description of data set [2]: In vitro plasma half-life. The data set is classed as in vitro ADME. To be noted: mouse, plasma, murine plasma, read-out: Plasma T1/2 (converted). Here is the method:
(§2) 12M11 (2 μM final concentration) was incubated with murine plasma and saline for 0-1440 minutes. Reactions were quenched with 200 μl (1:2) of methanol containing 0.1% formic acid and 200 ng/ml IS (IS final conc.=100 ng/mL). Samples were vortexed for 15 seconds, incubated at RT for 10 minutes and spun for 5 minutes at 13.2K rpm. Supernatant ([…]) was then transferred to an eppendorf tube and spun in a table top, chilled centrifuge for 5 minutes at 13.2K rpm. Supernatant (800 μL) was transferred to an HPLC vial (w/out insert). Analyzed by Qtrap 3200 mass spectrometer. These methods were used data obtained in the FIGS. 22C and 22F.

Data set [3] is described as follows: Buffer (saline) stability. The data set is classed as physicochemical. Here is the method:
as §2

The next data set is described as follows: Murine S9 half-life. The class given is in vitro ADME. Particulars: mouse, S9 fraction; murine S9, Phase I cofactors; read-out: S9 T1/2. On the procedure:
22D. […] (2 mM in DMSO) was incubated with Murine S9 (Lot KWB) fraction and Phase I (NADPH Regenerating System) cofactors for 0-240 minutes. Reactions were quenched with 1 mL (1:1) of methanol containing 0.2% formic acid and 100 ng/ml IS (IS final conc.=50 ng/mL). Samples were vortexed for 15 seconds, incubated at RT for 10 minutes and spun for 5 minutes at 2400 rpm. Supernatant (1 mL) was then transferred to an eppendorf tube and spun in a table top, chilled centrifuge for 5 minutes at 13.2K rpm. Supernatant (800 uL) was transferred to an HPLC vial (w/out insert). Analyzed by Qtrap 3200 mass spectrometer. These methods were used data obtained in the FIGS. 22A and 22D.

The next data set deals with astrocytes. The data set is described as follows: Cytotox testing (CellTiter-Glo) in astrocytes. The class given is cell-based. On the procedure: as §1
2,000 cells were plated into each well of 96-well plates. About 3 hours later, cells were treated by 12M11, at 800-fold dilution (4 mM stock was diluted into 5 μM final concentration). Cells were further incubated for 4 days. CellTiter-Glo assay (Promega) was performed according to manufacturer's instructions, by adding 20 μL of reagent into each well. Luminescence signal was detected by the PolarStar plate reader (BMG Labtech). Experiments were performed in quadruplicate, and results are presented with mean average −/+ standard deviation. EC505 were calculated by GraphPad Prism6 software.

In a further data set the test system is ATF4. The data set is described as follows: ATF4 western blot in Mut6 cells. The data set is classed as cell-based, mouse. Here is the method: (§3) Mut6 tumor cells and MEFs were treated by DMSO or 1 μM 12M11 for the indicated times. Cell lysate was prepared by RIPA buffer with phosphatase inhibitor (Thermo) and protease inhibitor (Roche). Antibodies are purchased from Santa Cruz (ATF4), Cell Signaling (pS6, S6, AMPK, and pAMPK), and Millipore (Gapdh).

Another data set has as its system Phospho-S6. Put plainly: p-S6 western blot in Mut6 cells. The data set is classed as cell-based, mouse. On the procedure:
as §3

Data set [4] has as its system Mut6. The data set is described as follows: Change in ATP levels in Mut6 cells. The class given is cell-based, mouse. To be noted: Mut6, 2-6 hr. On the procedure:
(§4) Mut6 tumor cells or MEFs were plated into 96-well plates. One day later, Oligomyin (2 μM), Rotenone (200 nM), or 12M11 (1 μM) were added into each well and then ATP levels were measured by Cell-Titer Glo (Promega) after 2 hr, 4 hr, or 6 hr incubation. Each data is mean of six replicates with ± standard deviation.

The next data set concerns MEF. Put plainly: Change in ATP levels in MEF cells. To be noted: 2-6 hr. The class given is cell-based, mouse. On the procedure: as §4
Data set [5] relates to mitochondrial membrane potential. Put plainly: TMRE mitochondrial membrane potential staining in Mut6 cells. The class given is cell-based, mouse. Particulars: within 30 min. Here is the method:
TMRE mitochondrial membrane potential assay kit was purchased from Abcam (113852) and the assay was performed according to the manufacturer's protocol. Briefly, cells were pre-incubated with 1 μM 12M11 (10 min or 18 hrs) or 100 nM FCCP (10 min) and incubated for additional 20 min with 200 nM TMRE before pictures were taken.

Consider `CC(C)[C@@H]1CC[C@@H](C)CC1OC(=O)Cn1c(-c2ccc(N=[N+]=[N-])cc2)[n+](C)c2ccccc21.[I-]` (stereo partly drawn), for which, in the data set on Mut6 [1], the EC50 was in the range of 0.1 to 1 µM. Further, in data set [2], the half-life at 2 μM is 0.433 h. The “Buffer Stability” value in data set [3] was found to be 96%. The half-life in the data set “Murine S9 half-life” is 0.433 h.

With `CC(C)[C@@H]1CC[C@@H](C)CC1OC(=O)Cn1c(-c2ccc(O)cc2)[n+](C)c2ccccc21.[I-]` (stereo partly drawn), the EC50 with Mut6 [1] fell in the range of 1 to 5 µM. For the same compound, in data set [2], the half-life at 2 μM was 0.163 h. Further, the “Buffer Stability” value in [3] is 114%. Moreover, the half-life in the data set “Murine S9 half-life” stood at 2.22 h.

In the case of `CC[C@H]1/C=C/C=C/C[C@@H](C)[C@H](O)[C@@](C)(O)C(=O)[C@@H](C)[C@H](O)[C@@H](C)C(=O)[C@@H](C)[C@H](O)[C@@H](C)/C=C/C(=O)O[C@@H]2[C@H](C)[C@H](CC1)O[C@]1(CC[C@H](C)[C@H](C[C@@H](C)O)O1)[C@H]2C` [oligomycin], the “activity against Mut6 cells” value in the data set with Mut6 [1] is recorded as “sensitive”. The “activity against astrocytes” value in the data set with astrocytes is “sensitive”. Further, the ATF4 protein level entry in the data set on ATF4 was “induction”. Besides, the Phospho-S6 protein level entry with Phospho-S6 was “suppression”. Further, the “ATP levels (% change from basal)” value with Mut6 [4] was “decrease significantly”; with MEF, “increase”.

As for `CC(C)[C@@H]1CC[C@@H](C)CC1OC(=O)Cn1c(-c2ccccc2[N+](=O)[O-])[n+](C)c2ccccc21.[I-]` (stereo partly drawn), in the data set with Mut6 [1], the 50% effective concentration (EC50) fell in the range of 0.1 to 1 µM. Besides, the half-life at 2 μM in [2] is 0.783 h. The “Buffer Stability” value in data set [3] was found to be 100%. Also, the half-life in “Murine S9 half-life” was above 4 h.

Turning to `C=C(C)[C@H]1Cc2c(ccc3c2O[C@@H]2COc4cc(OC)c(OC)cc4[C@@H]2C3=O)O1` [rotenone], the “activity against Mut6 cells” value in the data set with Mut6 [1] is “sensitive”. Further, the “activity against astrocytes” value in the data set on astrocytes is “sensitive”. The ATF4 protein level result in the data set on ATF4 is given as “induction”. Further, in the data set with Phospho-S6, the Phospho-S6 protein level result is “suppression”. Moreover, the “ATP levels (% change from basal)” value is recorded as “decrease significantly” with Mut6 [4] and “increase” in the data set on MEF.

As to `CC(C)[C@@H]1CC[C@@H](C)CC1OC(=O)Cn1c(-c2ccc([N+](=O)[O-])cc2)[n+](C)c2ccccc21.[I-]` (stereo partly drawn), in the data set on Mut6 [1], the EC50 is 1 to 5 µM. Besides, the half-life at 2 μM in data set [2] was 1.5 h. In addition, in data set [3], the “Buffer Stability” value worked out at 100%. Further, in the data set “Murine S9 half-life”, the half-life was 2.32 h.

As for `N#CC(C#N)=NNc1ccc(OC(F)(F)F)cc1` [FCCP, reference compound], the “oxidative phosphorylation / mitochondrial membrane potential by TMRE staining” value in data set [5] was “impairs oxidative phosphorylation”.

In the case of `CC(C)[C@@H]1CC[C@@H](C)CC1OC(=O)Cn1c(-c2cccc(C(F)(F)F)c2)[n+](C)c2ccccc21.[I-]` (stereo partly drawn), the EC50 in the data set with Mut6 [1] is 0.1 to 1 µM. Also, the half-life at 2 μM in [2] was 4 h. Moreover, the “Buffer Stability” value in data set [3] was 100%. In “Murine S9 half-life”, the half-life is above 4 h.

With `CC(C)[C@@H]1CC[C@@H](C)CC1OC(=O)Cn1c(-c2cccc([N+](=O)[O-])c2)[n+](C)c2ccccc21.[I-]` (stereo partly drawn), in the data set with Mut6 [1], the half-maximal effective concentration (EC50) lay within 1 to 5 µM. Further, the half-life at 2 μM in [2] is 5.5 h. The “Buffer Stability” value in data set [3] was found to be 133%. In addition, the half-life in the data set “Murine S9 half-life” is above 4 h.

On to `C[C@@H]1C[C@@H]([C@H](O)CC2CC(=O)NC(=O)C2)C(=O)[C@@H](C)C1` [cycloheximide, reference compound], for which the “activity against Mut6 cells” value in the data set with Mut6 [1] is “sensitive”. Further, the “activity against astrocytes” value with astrocytes is given as “sensitive”.

Values taken from patent US20180354909A1, “SUBSTITUTED BENZIMIDAZOLIUM, PYRIDO-IMIDAZOLIUM, OR PYRAZINO-IMIDAZOLIUM COMPOUNDS AS CHEMOTHERAPEUTICS” (The Board of Regents of the University of Texas System, priority 2015, published 2018).
